Measured values from patent publication US8822517B2, “Arylosulfonamides for the treatment of CNS diseases” (Adamed SP. Z O.O., priority 2010, dated 2014).

Experiments:
[1] = target: T1, serotonine transporter (SERT) receptor (Homo sapiens, UniProt P31645); assay: Binding assay SERT (h), [3H]imipramine, CHO cells; details: read-out: SERT [%]
T1 construct: expressed in transfected cells; host or cells: CHO cells
Description: (§1) The specific ligand binding to the receptors is defined as the difference between the total binding and the nonspecific binding determined in the presence of an excess of so unlabelled ligand.
(§2) The specific Ligand binding to the receptor is defined as the difference between total and non-specific binding determined in the presence of an excess of unlabelled ligand. The compounds were tested at a concentration of 1×10^−6 M, and scintillation counting was the method of detection of ligand binding.

[2] = target: dopaminergic D3 receptor (Homo sapiens, UniProt P35462); assay: Binding assay D3 (h), [3H]methyl-spiperone, CHO cells; set-up: expressed in transfected cells; host or cells: CHO cells; details: read-out: D3 [%]
Description: as §1, §2

[3] = target: serotoninergic 5-HT6 receptor (Homo sapiens, UniProt P50406); assay: Binding assay 5-HT6 (h), [3H]LSD, CHO cells; set-up: expressed in transfected cells; host or cells: CHO cells; details: read-out: 5-HT6
Description: as §1, §2

[4] = target: serotoninergic 5-HT7 receptor (Homo sapiens, UniProt P34969); assay: Binding assay 5-HT7 (h), [3H]LSD, CHO cells; set-up: expressed in transfected cells; host or cells: CHO cells; details: read-out: 5-HT7
Description: as §1, §2

[5] = target: dopaminergic D2 receptor (Homo sapiens, UniProt P14416); assay: Binding assay D2S (h), [3H]methyl-spiperone, HEK-293 cells; set-up: expressed in transfected cells; host or cells: HEK-293 cells; details: read-out: D2 [%]
Description: as §1, §2

[6] = target: T2, serotoninergic 5-HT1A receptor (Homo sapiens, UniProt P08908); assay: Binding assay 5-HT1A (h), [3H]8-OH-DPAT, HEK-293 cells; set-up: expressed in transfected cells; host or cells: HEK-293 cells; details: read-out: 5-HT1A
T2 sequence (P08908 1-422): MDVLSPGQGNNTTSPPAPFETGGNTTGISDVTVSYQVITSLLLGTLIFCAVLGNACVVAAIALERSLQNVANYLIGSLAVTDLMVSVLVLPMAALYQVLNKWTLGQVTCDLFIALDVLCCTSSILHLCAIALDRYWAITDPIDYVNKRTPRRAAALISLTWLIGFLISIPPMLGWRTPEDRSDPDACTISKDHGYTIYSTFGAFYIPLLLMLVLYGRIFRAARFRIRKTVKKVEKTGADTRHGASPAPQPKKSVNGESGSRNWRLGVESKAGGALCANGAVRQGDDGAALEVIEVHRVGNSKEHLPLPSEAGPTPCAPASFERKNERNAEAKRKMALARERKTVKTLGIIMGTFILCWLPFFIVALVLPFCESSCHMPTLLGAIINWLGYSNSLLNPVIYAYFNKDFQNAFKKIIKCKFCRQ
Description: as §1, §2

[7] = target: serotoninergic 5-HT2A receptor (Homo sapiens, UniProt P28223); assay: Binding assay 5-HT2A (h), [3H]ketanserin, HEK-293 cells; set-up: expressed in transfected cells; host or cells: HEK-293 cells; details: read-out: 5-HT2A
Description: as §1, §2

serotoninergic 5-HT7 receptor, sequence (P34969 whole entry): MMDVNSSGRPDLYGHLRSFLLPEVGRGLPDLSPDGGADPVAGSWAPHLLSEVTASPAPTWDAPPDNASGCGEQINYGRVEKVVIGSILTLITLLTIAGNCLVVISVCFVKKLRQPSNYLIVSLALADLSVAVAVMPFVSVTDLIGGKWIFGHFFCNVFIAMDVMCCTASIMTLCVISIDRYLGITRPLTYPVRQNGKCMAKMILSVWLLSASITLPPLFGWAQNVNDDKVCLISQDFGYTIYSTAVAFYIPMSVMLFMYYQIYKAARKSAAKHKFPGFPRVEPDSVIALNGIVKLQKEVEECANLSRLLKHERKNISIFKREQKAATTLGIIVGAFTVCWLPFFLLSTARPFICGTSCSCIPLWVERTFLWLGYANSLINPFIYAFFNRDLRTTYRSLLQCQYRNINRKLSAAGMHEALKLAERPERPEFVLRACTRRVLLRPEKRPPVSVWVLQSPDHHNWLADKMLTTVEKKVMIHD
serotoninergic 5-HT2A receptor, sequence (P28223 whole entry): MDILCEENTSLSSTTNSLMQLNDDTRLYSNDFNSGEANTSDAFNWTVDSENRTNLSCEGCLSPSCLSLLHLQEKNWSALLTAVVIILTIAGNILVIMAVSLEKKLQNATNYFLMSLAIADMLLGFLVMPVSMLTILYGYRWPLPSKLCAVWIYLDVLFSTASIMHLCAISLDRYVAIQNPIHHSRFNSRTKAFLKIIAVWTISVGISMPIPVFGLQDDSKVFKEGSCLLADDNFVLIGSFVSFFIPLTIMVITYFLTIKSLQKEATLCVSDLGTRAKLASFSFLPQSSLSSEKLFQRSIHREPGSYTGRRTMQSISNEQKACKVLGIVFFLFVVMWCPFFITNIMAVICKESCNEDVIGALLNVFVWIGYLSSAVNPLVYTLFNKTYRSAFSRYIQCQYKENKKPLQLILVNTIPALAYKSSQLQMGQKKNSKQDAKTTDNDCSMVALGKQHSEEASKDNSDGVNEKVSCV
T1 sequence (P31645 whole entry): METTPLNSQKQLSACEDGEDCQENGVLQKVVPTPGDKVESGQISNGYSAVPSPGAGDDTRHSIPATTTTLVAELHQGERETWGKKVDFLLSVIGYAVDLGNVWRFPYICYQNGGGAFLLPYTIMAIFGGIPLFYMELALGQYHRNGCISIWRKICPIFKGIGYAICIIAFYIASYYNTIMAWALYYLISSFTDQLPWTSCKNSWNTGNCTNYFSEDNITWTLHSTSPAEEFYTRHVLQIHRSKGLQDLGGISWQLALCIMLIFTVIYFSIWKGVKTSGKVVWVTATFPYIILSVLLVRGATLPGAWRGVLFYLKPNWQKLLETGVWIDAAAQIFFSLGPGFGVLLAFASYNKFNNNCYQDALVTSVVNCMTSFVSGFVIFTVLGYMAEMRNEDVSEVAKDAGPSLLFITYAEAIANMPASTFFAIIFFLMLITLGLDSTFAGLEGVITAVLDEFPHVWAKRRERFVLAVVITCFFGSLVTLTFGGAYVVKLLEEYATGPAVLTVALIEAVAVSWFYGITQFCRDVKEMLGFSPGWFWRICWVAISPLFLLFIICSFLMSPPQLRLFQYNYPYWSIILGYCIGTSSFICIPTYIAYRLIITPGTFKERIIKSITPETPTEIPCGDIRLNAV
dopaminergic D2 receptor, sequence (P14416 1-414 isoform P14416-2): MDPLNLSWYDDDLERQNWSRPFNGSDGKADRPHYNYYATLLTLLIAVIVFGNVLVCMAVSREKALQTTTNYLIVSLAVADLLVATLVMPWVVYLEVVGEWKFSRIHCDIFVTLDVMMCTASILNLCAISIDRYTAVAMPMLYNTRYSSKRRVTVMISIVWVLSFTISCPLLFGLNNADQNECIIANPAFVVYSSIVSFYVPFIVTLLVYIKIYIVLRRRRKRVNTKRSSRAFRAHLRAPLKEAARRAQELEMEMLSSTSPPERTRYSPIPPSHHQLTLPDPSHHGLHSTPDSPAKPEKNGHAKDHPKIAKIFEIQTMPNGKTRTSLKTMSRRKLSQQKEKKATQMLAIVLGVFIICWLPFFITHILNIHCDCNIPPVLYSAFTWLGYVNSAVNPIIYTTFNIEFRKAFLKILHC
dopaminergic D3 receptor, sequence (P35462 whole entry): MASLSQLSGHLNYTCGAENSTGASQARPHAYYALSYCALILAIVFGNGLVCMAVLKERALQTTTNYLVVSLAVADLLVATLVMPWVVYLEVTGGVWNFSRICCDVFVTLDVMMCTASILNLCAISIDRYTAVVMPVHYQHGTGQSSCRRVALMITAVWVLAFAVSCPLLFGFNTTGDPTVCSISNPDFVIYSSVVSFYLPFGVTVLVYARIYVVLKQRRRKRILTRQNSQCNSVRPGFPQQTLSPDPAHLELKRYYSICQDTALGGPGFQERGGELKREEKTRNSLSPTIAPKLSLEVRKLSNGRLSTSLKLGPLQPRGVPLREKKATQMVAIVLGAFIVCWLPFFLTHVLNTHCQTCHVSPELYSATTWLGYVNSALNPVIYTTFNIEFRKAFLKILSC
serotoninergic 5-HT6 receptor, sequence (P50406 whole entry): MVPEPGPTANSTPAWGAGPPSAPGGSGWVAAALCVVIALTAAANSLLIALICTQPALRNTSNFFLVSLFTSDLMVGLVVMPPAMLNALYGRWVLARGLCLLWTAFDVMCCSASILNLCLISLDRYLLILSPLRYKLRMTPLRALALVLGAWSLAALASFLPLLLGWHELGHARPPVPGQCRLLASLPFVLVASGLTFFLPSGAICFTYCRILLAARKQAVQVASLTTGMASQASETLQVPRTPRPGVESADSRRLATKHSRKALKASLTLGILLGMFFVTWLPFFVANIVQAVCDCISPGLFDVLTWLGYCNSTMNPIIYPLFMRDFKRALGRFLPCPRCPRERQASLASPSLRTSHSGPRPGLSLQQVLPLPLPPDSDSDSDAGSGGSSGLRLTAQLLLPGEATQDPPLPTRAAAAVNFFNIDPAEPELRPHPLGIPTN

Compound: O=S(=O)(NCCCN1CCC(c2noc3cc(F)ccc23)CC1)c1cccc(Cl)c1 [Compound 106, 3-Chloro-N-[3-[4-(6-fluoro-1,2-benzoxazol-3-yl)piperidin-1-yl]propyl]benzenesulphonamide]
- inhibition at 1 µM [1]: 2%
- inhibition at 1 µM [2]: 97%
- inhibition at 1 µM [3]: 93%
- inhibition at 1 µM [4]: 91%
- inhibition at 1 µM [5]: 108%
- inhibition at 1 µM [6]: 63%
- inhibition at 1 µM [7]: 97%

Compound: O=S(=O)(NCCCN1CCC(c2noc3cc(F)ccc23)CC1)c1cccc(Br)c1 [Compound 110, 3-Bromo-N-[3-[4-(6-fluoro-1,2-benzoxazol-3-yl)piperidin-1-yl]propyl]benzenesulphonamide]
- inhibition at 1 µM [1]: 8%
- inhibition at 1 µM [2]: 97%
- inhibition at 1 µM [3]: 96%
- inhibition at 1 µM [4]: 91%
- inhibition at 1 µM [5]: 109%
- inhibition at 1 µM [6]: 55%
- inhibition at 1 µM [7]: 99%

Compound: O=S(=O)(NCCCN1CCN(c2nsc3ccccc23)CC1)c1ccc(Cl)cc1 [Compound 250, N-[3-[4-(1,2-Benzothiazol-3-yl)piperazin-1-yl]propyl]-4-chlorobenzenesulphonamide]
- inhibition at 1 µM [1]: 23%
- inhibition at 1 µM [2]: 85%
- inhibition at 1 µM [3]: 73%
- inhibition at 1 µM [4]: 88%
- inhibition at 1 µM [5]: 97%
- inhibition at 1 µM [6]: 98%
- inhibition at 1 µM [7]: 92%

Compound: O=S(=O)(NCCCN1CCC(c2noc3cc(F)ccc23)CC1)c1ccc(Cl)cc1 [Compound 328, 4-Chloro-N-[3-[4-(6-fluoro-1,2-benzoxazol-3-yl)piperidin-1-yl]propyl]benzenesulphonamide]
- inhibition at 1 µM [1]: 7%
- inhibition at 1 µM [2]: 99%
- inhibition at 1 µM [3]: 87%
- inhibition at 1 µM [4]: 92%
- inhibition at 1 µM [5]: 108%
- inhibition at 1 µM [6]: 58%
- inhibition at 1 µM [7]: 90%

Compound: O=S(=O)(NCCCN1CCC(c2noc3cc(F)ccc23)CC1)c1ccc(Br)cc1 [Compound 330, 4-Bromo-N-[3-[4-(6-fluoro-1,2-benzoxazol-3-yl)piperidin-1-yl]propyl]benzenesulphonamide]
- inhibition at 1 µM [1]: -2%
- inhibition at 1 µM [2]: 99%
- inhibition at 1 µM [3]: 83%
- inhibition at 1 µM [4]: 90%
- inhibition at 1 µM [5]: 108%
- inhibition at 1 µM [6]: 67%
- inhibition at 1 µM [7]: 93%

Compound: O=S(=O)(NCCCN1CCC(c2noc3cc(F)ccc23)CC1)c1ccc(Cl)s1 [Compound 341, 5-Chloro-N-[3-[4-(6-fluoro-1,2-benzoxazol-3-yl)piperidin-1-yl]propyl]thiophene-2-sulphonamide]
- inhibition at 1 µM [1]: 8%
- inhibition at 1 µM [2]: 98%
- inhibition at 1 µM [3]: 93%
- inhibition at 1 µM [4]: 78%
- inhibition at 1 µM [5]: 98%
- inhibition at 1 µM [6]: 74%
- inhibition at 1 µM [7]: 102%

Compound: Cc1c(S(=O)(=O)NCCCN2CCC(c3noc4cc(F)ccc34)CC2)sc2ccc(Cl)cc12 [Compound 348, 5-Chloro-N-[3-[4-(6-fluoro-1,2-benzoxazol-3-yl)piperidin-1-yl]propyl]-3-methylbenzothiophene-2-sulphonamide]
- inhibition at 1 µM [1]: 6%
- inhibition at 1 µM [2]: 102%
- inhibition at 1 µM [3]: 96%
- inhibition at 1 µM [4]: 87%
- inhibition at 1 µM [5]: 104%
- inhibition at 1 µM [6]: 36%
- inhibition at 1 µM [7]: 107%

Compound: O=S(=O)(NCCCCN1CC=C(c2c[nH]c3ccc(F)cc23)CC1)c1cccc(O)c1 [Compound 434, N-[4-[4-(5-Fluoro-1H-indol-3-yl)-3,6-dihydro-2H-pyridin-1-yl]butyl]-3-hydroxybenzenesulphonamide]
- inhibition at 1 µM [2]: 98%

Compound: O=S(=O)(NCCCN1CC=C(c2c[nH]c3ccc(F)cc23)CC1)c1cccc(F)c1 [Compound 436, 3-Fluoro-N-[3-[4-(5-fluoro-1H-indol-3-yl)-3,6-dihydro-2H-pyridin-1-yl]propyl]benzenesulphonamide]
- inhibition at 1 µM [2]: 96%
- inhibition at 1 µM [6]: 85%
- inhibition at 1 µM [7]: 56%
